Values of other authors, collected in publication PMC3117075 (Journal of medicinal chemistry, 2011).

Biological target: BRCT(BRCA1) (Homo sapiens, UniProt P38398)
Conditions: previously reported value

Chain of BRCT(BRCA1) (P38398 1646-1859 limits assumed): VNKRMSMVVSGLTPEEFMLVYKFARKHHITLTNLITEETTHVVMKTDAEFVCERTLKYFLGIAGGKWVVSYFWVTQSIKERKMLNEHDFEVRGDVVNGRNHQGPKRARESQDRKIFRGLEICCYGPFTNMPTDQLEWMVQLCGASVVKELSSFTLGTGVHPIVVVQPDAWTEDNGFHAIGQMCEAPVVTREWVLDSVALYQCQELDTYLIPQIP

- ΔCp (change in heat capacity at constant pressure): -340 ± 30 cal mol-1 K-1
Substance: ISRSTpSPTFNKQT
